Counter-ions that a name gives are not always drawn.
Experiments:
[1] = tested on: A549 (lung adenocarcinoma); conditions: 10 μM, 72 hours
Protocol: (§1) These cells were seeded at an amount of 2×10^6 cells, and then added with the culture medium for cultivating the cells to a volume of 10 mL, followed by cultivation for 2 to 3 days. After counting the cell number, these cells were respectively plated in a 96-well plate, in which each well has a fixed cell number of 3000 and a volume of 100 μL.
(§2) After removing the culture medium in the 96-well plate, each well was added with 100 μL of 10 μM commercial drug and then placed for 72 hours. Thereafter, each well was further added with 100 μL of a diluted WST-1 solution (the dilution ratio for the culture medium: WST-1 stock solution (wt/wt) is 9:1).

[2] = tested on: TSGH (urinary bladder carcinoma); conditions: 10 μM, 72 hours
Protocol: as §1, §2

T24 = conditions: 10 μM, 72 hours
Protocol: as §1, §2
(§3) Each cancer cell inhibitory experiment was repeated for 4 times, followed by calculation of the mean values thereof, which were shown in the following tables.

[3] = tested on: 786-O (renal adenocarcinoma); conditions: 10 μM, 72 hours
Protocol: as §1, §2

[4] = tested on: PC-3 (prostate adenocarcinoma); conditions: 10 μM, 72 hours
Protocol: as §1, §2, §3

[5] = tested on: MCF-7 (mammary gland, adenocarcinoma); conditions: 10 μM, 72 hours
Protocol: as §1, §2

[6] = tested on: MDA-MB-231 (mammary gland, adenocarcinoma); conditions: 10 μM, 72 hours
Protocol: as §1, §2, §3

NIH-OVCAR-3 = conditions: 10 μM, 72 hours
Protocol: as §1, §2

TOV-21G = conditions: 10 μM, 72 hours
Protocol: as §1, §2

[7] = tested on: AGS (gastric adenocarcinoma); conditions: 10 μM, 72 hours
Protocol: as §1, §2, §3

[8] = tested on: MKN-45 (gastric adenocarcinoma); conditions: 10 μM, 72 hours
Protocol: as §1, §2, §3

[9] = tested on: HepG2 (hepatocellular carcinoma); conditions: 10 μM, 72 hours
Protocol: as §1, §2, §3

BxPC-3 = conditions: 10 μM, 72 hours
Protocol: as §1, §2, §3

U2OS = conditions: 10 μM, 72 hours
Protocol: as §1, §2

[10] = tested on: BCC (basal cell carcinoma); conditions: 10 μM, 72 hours
Protocol: as §1, §2

[11] = tested on: BEAS-2B (lung epithelial); conditions: 10 μM, 72 hours
Protocol: as §1, §2
(§4) Each cell inhibitory experiment was repeated for 4 times, followed by calculation of the mean values thereof, which were shown in the following tables.

Lung cancer = conditions: summary over cell lines, 10 μM, 72 hours
Protocol: as §1, §2

Gastric cancer = conditions: summary over cell lines, 10 μM, 72 hours
Protocol: as §1, §2

Colorectal cancer = conditions: summary over cell lines, 10 μM, 72 hours
Protocol: as §1, §2

[12] = BEAS-2B normal lung epithelial cells, single experiment

Protocol for normal cells: as §1, §2, §4

## CNCC[C@H](Oc1cccc2ccccc12)c1cccs1 [duloxetine HCl, Duloxetine hydrochloride]
[1]; mean of 4 experiments
  Mean survival rate (%): 37.5%
[1]; single experiment
  survival rate 0524-10 min: 32.8%
  survival rate 0526-10 min: 53.7%
  survival rate 0529-10 min: 33.2%
  survival rate 0531-10 min: 30.1%
[2]; mean of 4 experiments
  Mean survival rate (%): 49.2%
[2]; single experiment
  survival rate 0510-10 min: 36.1%
  survival rate 0512-10 min: 59.0%
  survival rate 0515-10 min: 61.2%
  survival rate 0517-10 min: 40.5%
T24; mean of 4 experiments
  Mean (survival rate): 85.2%
T24; single experiment
  survival rate T24-1-30 min: 81.7%
  survival rate T24-2-20 min: 90.6%
  survival rate T24-3-20 min: 71.4%
  survival rate T24-4-20 min: 97.2%
[3]; 786-O, mean of 4 experiments
  Mean survival rate (%): 67.3%
[3]; 786-O, single experiment
  survival rate 0524-10 min: 60.4%
  survival rate 0526-10 min: 89.7%
  survival rate 0529-10 min: 49.0%
  survival rate 0531-10 min: 70.1%
[3]; Renal cancer (786-O), summary table
  Survival rate (%): 67.3%
[4]; mean of 4 experiments
  Mean survival rate (%): 45.6%
[4]; single experiment
  survival rate PC-3-0524-10 min: 45.0%
  survival rate PC-3-0526-10 min: 70.9%
  survival rate PC-3-0529-10 min: 41.4%
  survival rate PC-3-0531-10 min: 25.1%
[5]; mean of 4 experiments
  Mean survival rate (%): 31.2%
[5]; single experiment
  survival rate 0612-10 min: 29.0%
  survival rate 0614-10 min: 37.3%
  survival rate 0616-10 min: 30.0%
  survival rate 0619-10 min: 28.5%
[6]; mean of 3 printed experiments
  Mean (survival rate): 65.9%
[6]; single experiment
  survival rate 0612-10 min: 53.4%
  survival rate 0614-10 min: 70.2%
  survival rate 0616-10 min: 74.3%
NIH-OVCAR-3; mean of 4 experiments
  Mean survival rate (%): 68.2%
NIH-OVCAR-3; single experiment
  survival rate 7-3-30 min: 64.8%
  survival rate 7-4-30 min: 74.6%
  survival rate 7-7-30 min: 78.5%
  survival rate -4-30 min: 55.0%
TOV-21G; mean of 4 experiments
  Mean (survival rate): 34.9%
TOV-21G; single experiment
  survival rate 7-3-30 min: 30.9%
  survival rate 7-4-30 min: 41.9%
  survival rate 7-7-30 min: 34.7%
  survival rate -4-30 min: 31.9%
[7]; mean of 4 experiments
  Mean survival rate (%): 23.5%
[7]; single experiment
  survival rate 0510-10 min: 25.0%
  survival rate 0512-10 min: 15.9%
  survival rate 0515-10 min: 37.3%
  survival rate 0517-10 min: 15.8%
[8]; mean of 4 experiments
  Mean (survival rate): 59.7%
[8]; single experiment
  survival rate 0510-10 min: 59.5%
  survival rate 0512-10 min: 75.3%
  survival rate 0515-10 min: 46.0%
  survival rate 0517-10 min: 57.9%
[9]; mean of 4 experiments
  Mean survival rate (%): 34.0%
[9]; single experiment
  survival rate 0524-20 min: 14.8%
  survival rate 0526-20 min: 44.7%
  survival rate 0529-20 min: 37.7%
  survival rate 0531-20 min: 38.9%
BxPC-3; mean of 4 experiments
  Mean survival rate (%): 54.0%
BxPC-3; single experiment
  survival rate 3-4-30 min: 72.4%
  survival rate 3-7-3-30 min: 62.1%
  survival rate 3-7-4-30 min: 58.8%
  survival rate 3-7-7-30 min: 22.7%
U2OS; Osteosarcoma (U2OS), summary table
  Survival rate (%): 35.09%
U2OS; U2OS, mean of 4 experiments
  Mean survival rate (%): 35.1%
U2OS; U2OS, single experiment
  survival rate 6-26-10 min: 26.6%
  survival rate 6-28-10 min: 21.5%
  survival rate 6-30-10 min: 56.6%
  survival rate 7-3-10 min: 35.6%
[10]; mean of 3 experiments
  Mean (survival rate): 48.1%
[10]; single experiment
  survival rate 0602-30 min: 43.9%
  survival rate 0605-10 min: 31.3%
  survival rate 0607-10 min: 69.0%
[11]; BEAS-2B normal lung epithelial cells, mean of 4 experiments
  Mean survival rate (%): 72.5%
[11]; [12]
  survival rate 0510-10 min: 59.5%
  survival rate 0512-10 min: 76.3%
  survival rate 0515-10 min: 74.7%
  survival rate 0517-10 min: 79.6%
[11]; Lung epithelial cells (BEAS-2B normal cells), summary table
  Survival rate (%): 72.50%
Lung cancer
  Survival rate (%): 36.87%
Gastric cancer
  Survival rate (%): 41.6%
Colorectal cancer
  Survival rate (%): 62.21%
Normal cells; normal cells
  cytotoxicity to the normal cells: little or no cytotoxicity
Normal cells; normal cells versus tumor cells
  selective effect between normal cells and tumor cells: selective effect

Source: patent US10045962B2 (priority 2014, dated 2018)
